Structures can show the parent of a compound that is named as a salt.
assay: in vitro; conditions: rat, gh3-tre-luc cells, AC50 (uM) modified / 1000

Row | Compound | CC50 at 24 h
1 | O=C1CCC(=O)N1Cl [N-Chlorosuccinimide] | > 90 µM
2 | Clc1cccc(C(Cl)(Cl)Cl)n1 [Nitrapyrin] | > 90 µM
3 | CCC(C)Nc1c([N+](=O)[O-])cc(C(C)(C)C)cc1[N+](=O)[O-] (stereo not shown) [Butralin] | 68.1 µM
4 | O=Cc1c(Cl)cccc1Cl [2,6-Dichlorobenzaldehyde] | > 90 µM
5 | CN(C)CCCN1c2ccccc2Sc2ccc(C(F)(F)F)cc21 [Triflupromazine hydrochloride] | 9.02 µM
6 | CC(=O)OC/C=C(/C)CCC=C(C)C [cis-3,7-Dimethyl-2,6-octadien-1-yl acetate] | > 90 µM
7 | C=CCCCC [1-Hexene] | > 100 µM
8 | FC(F)(F)C(F)(F)C(F)(F)C(F)(F)C(F)(F)C(F)(F)F [Perflexane] | > 50 µM
9 | CC[N+]1(C)CCCC1 [1-Ethyl-1-methylpyrrolidinium hexafluorophosphate] | > 90 µM
10 | CC(C)CCCCCCOC(=O)c1ccccc1C(=O)OCCCCCCC(C)C [Diisononyl phthalate] | > 90 µM
11 | C[N+]1(C)CCC(=C(c2ccccc2)c2ccccc2)CC1 [Diphemanil methylsulfate] | > 20 µM
12 | O=C(Nc1ccccc1)c1cc(Cl)ccc1O [5-Chlorosalicylanilide] | 7.85 µM
13 | OC(CN1CCCCC1)c1cc(-c2ccccc2)on1 (stereo not shown) [Perisoxal citrate] | > 50 µM
14 | CCCCCCCCCCCCCC(=O)OCC(COP(=O)([O-])OCC[N+](C)(C)C)OC(=O)CCCCCCCCCCCCC (racemic) [1,2-Ditetradecanoyl-rac-glycerol-3-phosphocholine] | > 50 µM
15 | Cc1ccc2c(c1N)C(=O)c1ccccc1C2=O [1-Amino-2-methylanthraquinone] | 78.4 µM
16 | CCC(=O)O[C@]1(C(=O)CCl)[C@@H](C)C[C@H]2[C@@H]3CCC4=CC(=O)C=C[C@]4(C)[C@@]3(F)[C@@H](O)C[C@@]21C [Clobetasol propionate] | > 50 µM
17 | CC1CCCCC1NC(=O)Nc1ccccc1 (stereo not shown) [Siduron] | > 90 µM

Row | Compound | CC50 at 24 h
18 | CC(=O)O[C@@H]1C(=O)O[C@H]2[C@@H]1OC(=O)[C@@H]2OC(C)=O [Aceglatone] | > 50 µM
19 | CCC1(CCC(C)C)C(=O)NC(=O)NC1=O [Amobarbital] | > 90 µM
20 | NNC(=O)c1cccc(C(=O)NN)c1 [1,3-Benzenedicarboxylic acid, dihydrazide] | > 90 µM
21 | c1ccc2c(c1)OCC(C1=NCCN1)O2 (stereo not shown) [Idazoxan] | 7.8 µM
22 | OC1CCCCC1c1ccccc1 (stereo not shown) [2-Phenylcyclohexanol] | > 90 µM
23 | CC12CCC(CC1)C(C)(C)O2 [1,8-Cineol] | > 90 µM
24 | CC(C)/N=c1\cc2n(-c3ccc(Cl)cc3)c3ccccc3nc-2cc1Nc1ccc(Cl)cc1 [Clofazimine] | 5.75 µM
25 | CCCCOC(C)=O [Butyl acetate] | > 90 µM
26 | C=CC(C)(CCC=C(C)C)OC(=O)C(C)C (stereo not shown) [Linalyl isobutyrate] | > 90 µM
27 | CC(O)C#CC(C)O (stereo not shown) [Hex-3-yne-2,5-diol] | 50.2 µM
28 | O=c1oc2cc(O)ccc2s1 [Thioxolone] | > 50 µM
29 | NCc1ccccc1Sc1ccccc1CO [Bipenamol] | > 50 µM
30 | Oc1nc2ccc(Cl)cc2o1 [6-Chloro-2,3-dihydrobenzoxazol-2-one] | > 90 µM
31 | CCCCCC(O)/C=C/C=O (stereo not shown) [(2E)-4-Hydroxy-2-nonenal] | > 50 µM
32 | CCc1cccc(C)c1N(C(=O)CCl)[C@@H](C)COC [S-Metolachlor] | > 90 µM
33 | C=CCOC(=O)c1ccc(C(=O)OCC=C)c(C(=O)OCC=C)c1 [Triallyl trimellitate] | > 90 µM
34 | Oc1cc(Cl)cc(Cl)c1Cl [2,3,5-Trichlorophenol] | > 90 µM

same assay, conditions: rat, gh3-tre-luc cells, AC50 (uM) modified / 1000, Tox21_110001=Tox21_110988; viability, 1 nM T3 present, 24 h

Row | Compound | CC50 at 24 h
35 | COC(=O)c1cncn1C(C)c1ccccc1 (stereo not shown) [Metomidate hydrochloride] | > 50 µM

same assay, conditions: rat, gh3-tre-luc cells, AC50 (uM) modified / 1000, Tox21_110001=Tox21_112614; viability, 1 nM T3 present, 24 h

Row | Compound | CC50 at 24 h
36 | C=CCN1CC[C@]23c4c5ccc(O)c4O[C@H]2[C@@H](O)C=C[C@H]3[C@H]1C5 [Nalorphine hydrochloride] | > 50 µM

same assay, conditions: rat, gh3-tre-luc cells, AC50 (uM) modified / 1000, Tox21_110001=Tox21_112818; viability, 1 nM T3 present, 24 h

Row | Compound | CC50 at 24 h
37 | C[C@H]1N=C(N)O[C@H]1c1ccccc1 (stereo in doubt) [(4R,5S)-4-methyl-5-phenyl-4,5-dihydro-1,3-oxazol-2-amine] | > 90 µM

same assay, conditions: rat, gh3-tre-luc cells, AC50 (uM) modified / 1000, Tox21_110001=Tox21_201929; viability, 1 nM T3 present, 24 h

Row | Compound | CC50 at 24 h
38 | CC(C)C#N [2-Methylpropanenitrile] | > 90 µM

same assay, conditions: rat, gh3-tre-luc cells, AC50 (uM) modified / 1000, Tox21_110001=Tox21_202419; viability, 1 nM T3 present, 24 h

Row | Compound | CC50 at 24 h
39 | Cl/C=C/Cl [(E)-1,2-Dichloroethylene] | > 90 µM

same assay, conditions: rat, gh3-tre-luc cells, AC50 (uM) modified / 1000, Tox21_110001=Tox21_301263; viability, 1 nM T3 present, 24 h

Row | Compound | CC50 at 24 h
40 | CCCCN(CCCCO)N=O [Butyl-N-(4-hydroxybutyl)nitrosamine] | > 90 µM

same assay, conditions: rat, gh3-tre-luc cells, AC50 (uM) modified / 1000, Tox21_110001=Tox21_302159; viability, 1 nM T3 present, 24 h

Row | Compound | CC50 at 24 h
41 | O=C(Cc1ccccc1)c1ccccc1 [1,2-Diphenylethanone] | > 90 µM

same assay, conditions: rat, gh3-tre-luc cells, AC50 (uM) modified / 1000, Tox21_110001=Tox21_302216; viability, 1 nM T3 present, 24 h

Row | Compound | CC50 at 24 h
42 | CCOC(=O)COc1ccc(Cl)cc1Cl [2,4-D-ethyl ester] | > 90 µM

same assay, conditions: rat, gh3-tre-luc cells, AC50 (uM) modified / 1000, Tox21_110001=Tox21_400042; viability, 1 nM T3 present, 24 h

Row | Compound | CC50 at 24 h
43 | OCCCBr [3-Bromo-1-propanol] | > 90 µM

From article PMC6792352, “Limited Chemical Structural Diversity Found to Modulate Thyroid Hormone Receptor in the Tox21 Chemical Library” (Environmental Health Perspectives, 2019)
